Patent publication US11197479B2, “Use of silthiofam for the treatment of soybean rust” (priority 2018, dated 2021)
Where “and” joins values, the source holds several entries; their conditions need not be identical. Equal values may be shown once.

System: Phakopsora pachyrhizi
Test: Glasshouse pot trial: efficacy on soybean rust on soybean (Glycine max), visual estimation of degree of infection on leaves
Type: in vivo
Method: In the tables presented below, the following terms have the following meaning:
Glasshouse pot trials were conducted to evaluate the effect and efficacy of silthiofam on soybean rust disease on soybean (Glycine max).
The trial was divided in 11 treatments. In 4 of the treatments, silthiofam was applied in different amounts.
Silthiofam compositions used in this trial were prepared from the suspension concentrate containing 125 g/L of silthiofam, diluted with water to predetermined concentration and sprayed on the plants in the predetermined amounts.
In two of the treatments, silthiofam was applied in combination with additional ingredients.
First combination was of silthiofam and chitosan, wherein silthiofam was applied in an amount of 250 g/ha on the plant first and chitosan was applied subsequently in an amount of 200 g/ha.
Second combination was a combination of silthiofam and tagatose, wherein silthiofam was applied in an amount of 250 g/ha simultaneously with tagatose in an amount of 200 g/ha.
Further 6 treatments were current market available treatments of soybean rust applied in the label prescribed dose, wherein the compositions used were prepared from commercially available products prepared according to the respective label instructions and sprayed on the plants.
One treatment of the trial consisted of fungi inoculated plants which received no treatment.
Soybean plants were treated two times with silthiofam and other treatments. First treatment was applied when soybean plants reached stage BBCH16 and the second treatment was applied when soybean plants reached stage BBCH61. Growth stages were defined according to Compendium of Growth Stage Identification Keys for Mono- and Dicotyledonous Plants, Extended BBCH scale, 2nd Edition 1997, ISBN 3-9520749-3-4.
After silthiofam and other treatments were applied first time, plants were inoculated with Phakopsora pachyrhizi spores and evaluation of leaves condition and disease spread was done every 7 days.
Method used for evaluation of disease spread was visual estimation of degree of infection on leaves.
The experimental design of the pot trial was randomized design with 4 pot replications per treatment applied, wherein six soybean plants were planted per pot.
Treatments were the following:
Treatment 1: Plant inoculated with P. pachyrhizi, no treatment applied
Treatment 2: Treatment with flutriafol and azoxystrobin mixture, applied in concentration of 31.25 g flutriafol/ha and 37.5 g azoxystrobin/ha
Treatment 3: Silthiofam treatment applied in 250 g silthiofam/ha
Treatment 4: Silthiofam treatment applied in 500 g silthiofam/ha
Treatment 5: Silthiofam treatment applied in 250 g silthiofam/ha and 200 g/ha of tagatose
Treatment 6: Silthiofam treatment applied in 250 g silthiofam/ha and 200 g/ha of chitosan
Treatment 7: Mancozeb applied in 1.68 kg mancozeb/ha
Treatment 8: Chlorothalonil applied in 626.4 g chlorothalonil/ha
Treatment 9: Azoxystrobin applied in 37.5 g azoxystrobin/ha
Treatment 10: Boscalid applied in 294 g boscalid/ha
Treatment 11: Prothioconazole and tebuconazole mixture applied as 42 g prothioconazole/ha and 84 g tebuconazole/ha

Compound: CO/C=C(/C(=O)OC)c1ccccc1Oc1cc(Oc2ccccc2C#N)ncn1 [Azoxystrobin]
- % efficacy (azoxystrobin 37.5 g/ha, 7/7 d after first/last application, 19 d after planting, LEALOW): 64.3% and 72.8% and 67.8% and 77.8%
- % efficacy (azoxystrobin 37.5 g/ha, 7/7 d after first/last application, 19 d after planting, LEAMID): 73.4% and 88.9% and 81.9% and 100.0%
- % efficacy (azoxystrobin 37.5 g/ha, 7/7 d after first/last application, 19 d after planting, LEAUPP): 100.0%
- % efficacy (azoxystrobin 37.5 g/ha, 14/14 d after first/last application, 26 d after planting, LEALOW): 85.0% and 79.0% and 84.1% and 80.6%
- % efficacy (azoxystrobin 37.5 g/ha, 14/14 d after first/last application, 26 d after planting, LEAMID): 92.0% and 94.5% and 90.0% and 89.4%
- % efficacy (azoxystrobin 37.5 g/ha, 14/14 d after first/last application, 26 d after planting, LEAUPP): 98.6% and 90.8% and 98.7%
- % efficacy (azoxystrobin 37.5 g/ha, 21/21 d after first/last application, 33 d after planting, LEALOW): 72.0% and 65.0% and 59.0% and 60.0%
- % efficacy (azoxystrobin 37.5 g/ha, 21/21 d after first/last application, 33 d after planting, LEAMID): 82.0% and 79.0% and 90.0% and 78.0%
- % efficacy (azoxystrobin 37.5 g/ha, 21/21 d after first/last application, 33 d after planting, LEAUPP): 100.0%
- % efficacy (azoxystrobin 37.5 g/ha, 28/7 d after first/last application, 40 d after planting, LEALOW): 54.0% and 67.0% and 65.0% and 62.0%
- % efficacy (azoxystrobin 37.5 g/ha, 28/7 d after first/last application, 40 d after planting, LEAMID): 82.0% and 85.0% and 88.0%
- % efficacy (azoxystrobin 37.5 g/ha, 28/7 d after first/last application, 40 d after planting, LEAUPP): 100.0%
- % efficacy (azoxystrobin 37.5 g/ha, 35/14 d after first/last application, 47 d after planting, LEAMID): 85.0% and 88.0% and 82.0%
- % efficacy (azoxystrobin 37.5 g/ha, 35/14 d after first/last application, 47 d after planting, LEAUPP): 100.0% and 98.9%
- % efficacy (azoxystrobin 37.5 g/ha, 42/21 d after first/last application, 54 d after planting, LEAMID): 52.0% and 62.0% and 56.0% and 58.0%
- % efficacy (azoxystrobin 37.5 g/ha, 42/21 d after first/last application, 54 d after planting, LEAUPP): 82.0% and 85.0% and 86.0%

Compound: O=C(Nc1ccccc1-c1ccc(Cl)cc1)c1cccnc1Cl [Boscalid]
- % efficacy (boscalid 294 g/ha, 7/7 d after first/last application, 19 d after planting, LEALOW): 85.8% and 86.4% and 93.6% and 100.0%
- % efficacy (boscalid 294 g/ha, 7/7 d after first/last application, 19 d after planting, LEAMID): 100.0%
- % efficacy (boscalid 294 g/ha, 7/7 d after first/last application, 19 d after planting, LEAUPP): 100.0%
- % efficacy (boscalid 294 g/ha, 14/14 d after first/last application, 26 d after planting, LEALOW): 76.0% and 80.0% and 78.0%
- % efficacy (boscalid 294 g/ha, 14/14 d after first/last application, 26 d after planting, LEAMID): 90.0% and 86.8% and 88.0% and 85.1%
- % efficacy (boscalid 294 g/ha, 14/14 d after first/last application, 26 d after planting, LEAUPP): 98.6% and 92.6% and 98.7%
- % efficacy (boscalid 294 g/ha, 21/21 d after first/last application, 33 d after planting, LEALOW): 55.0% and 42.0% and 38.0% and 35.0%
- % efficacy (boscalid 294 g/ha, 21/21 d after first/last application, 33 d after planting, LEAMID): 56.0% and 49.0% and 55.0% and 52.0%
- % efficacy (boscalid 294 g/ha, 21/21 d after first/last application, 33 d after planting, LEAUPP): 91.9% and 88.9% and 89.4% and 92.9%
- % efficacy (boscalid 294 g/ha, 28/7 d after first/last application, 40 d after planting, LEALOW): 49.0% and 52.0% and 51.0% and 44.0%
- % efficacy (boscalid 294 g/ha, 28/7 d after first/last application, 40 d after planting, LEAMID): 44.0% and 48.0% and 56.0% and 52.0%
- % efficacy (boscalid 294 g/ha, 28/7 d after first/last application, 40 d after planting, LEAUPP): 85.9% and 100.0% and 93.1% and 85.7%
- % efficacy (boscalid 294 g/ha, 35/14 d after first/last application, 47 d after planting, LEAMID): 35.0% and 42.0% and 48.0% and 43.0%
- % efficacy (boscalid 294 g/ha, 35/14 d after first/last application, 47 d after planting, LEAUPP): 83.6% and 82.0% and 77.3% and 82.2%
- % efficacy (boscalid 294 g/ha, 42/21 d after first/last application, 54 d after planting, LEAUPP): 75.0% and 67.0% and 64.0% and 72.0%

Compound: N#Cc1c(Cl)c(Cl)c(Cl)c(C#N)c1Cl [Chlorothalonil]
- % efficacy (chlorothalonil 626.4 g/ha, 7/7 d after first/last application, 19 d after planting, LEALOW): 35.8% and 65.9% and 54.9% and 50.0%
- % efficacy (chlorothalonil 626.4 g/ha, 7/7 d after first/last application, 19 d after planting, LEAUPP): 100.0%
- % efficacy (chlorothalonil 626.4 g/ha, 14/14 d after first/last application, 26 d after planting, LEALOW): 75.0% and 69.0% and 68.1% and 59.2%
- % efficacy (chlorothalonil 626.4 g/ha, 14/14 d after first/last application, 26 d after planting, LEAMID): 85.0% and 80.2% and 79.0% and 67.1%
- % efficacy (chlorothalonil 626.4 g/ha, 14/14 d after first/last application, 26 d after planting, LEAUPP): 88.3% and 81.5% and 78.9% and 80.0%
- % efficacy (chlorothalonil 626.4 g/ha, 21/21 d after first/last application, 33 d after planting, LEALOW): 55.0% and 40.0% and 44.0% and 45.0%
- % efficacy (chlorothalonil 626.4 g/ha, 21/21 d after first/last application, 33 d after planting, LEAMID): 72.0% and 70.0% and 65.0% and 62.0%
- % efficacy (chlorothalonil 626.4 g/ha, 21/21 d after first/last application, 33 d after planting, LEAUPP): 82.3% and 80.6% and 72.0% and 64.3%
- % efficacy (chlorothalonil 626.4 g/ha, 28/7 d after first/last application, 40 d after planting, LEALOW): 22.0% and 34.0% and 32.0% and 26.0%
- % efficacy (chlorothalonil 626.4 g/ha, 28/7 d after first/last application, 40 d after planting, LEAMID): 56.0% and 52.0% and 55.0% and 54.0%
- % efficacy (chlorothalonil 626.4 g/ha, 28/7 d after first/last application, 40 d after planting, LEAUPP): 74.4% and 70.6% and 70.9% and 76.7%
- % efficacy (chlorothalonil 626.4 g/ha, 35/14 d after first/last application, 47 d after planting, LEAMID): 52.0% and 44.0% and 48.0% and 42.0%
- % efficacy (chlorothalonil 626.4 g/ha, 35/14 d after first/last application, 47 d after planting, LEAUPP): 63.8% and 69.0% and 68.0%
- % efficacy (chlorothalonil 626.4 g/ha, 42/21 d after first/last application, 54 d after planting, LEAUPP): 52.0% and 45.0% and 42.0% and 48.0%

Compound: Mancozeb
- % efficacy (mancozeb 1.68 kg/ha, 7/7 d after first/last application, 19 d after planting, LEALOW): 50.0% and 65.9% and 64.6% and 61.2%
- % efficacy (mancozeb 1.68 kg/ha, 7/7 d after first/last application, 19 d after planting, LEAMID): 46.7% and 72.3% and 54.6% and 50.0%
- % efficacy (mancozeb 1.68 kg/ha, 7/7 d after first/last application, 19 d after planting, LEAUPP): 100.0%
- % efficacy (mancozeb 1.68 kg/ha, 14/14 d after first/last application, 26 d after planting, LEALOW): 67.0% and 75.0% and 56.4% and 64.3%
- % efficacy (mancozeb 1.68 kg/ha, 14/14 d after first/last application, 26 d after planting, LEAMID): 82.0% and 78.0% and 73.5%
- % efficacy (mancozeb 1.68 kg/ha, 14/14 d after first/last application, 26 d after planting, LEAUPP): 83.8% and 72.3% and 85.9% and 76.0%
- % efficacy (mancozeb 1.68 kg/ha, 21/21 d after first/last application, 33 d after planting, LEALOW): 42.0% and 38.0% and 52.0% and 48.0%
- % efficacy (mancozeb 1.68 kg/ha, 21/21 d after first/last application, 33 d after planting, LEAMID): 66.0% and 62.0% and 59.0% and 60.0%
- % efficacy (mancozeb 1.68 kg/ha, 21/21 d after first/last application, 33 d after planting, LEAUPP): 71.0% and 72.3% and 66.7% and 60.0%
- % efficacy (mancozeb 1.68 kg/ha, 28/7 d after first/last application, 40 d after planting, LEALOW): 28.0% and 35.0% and 32.0% and 25.0%
- % efficacy (mancozeb 1.68 kg/ha, 28/7 d after first/last application, 40 d after planting, LEAMID): 62.0% and 56.0% and 54.0% and 49.0%
- % efficacy (mancozeb 1.68 kg/ha, 28/7 d after first/last application, 40 d after planting, LEAUPP): 82.1% and 74.2% and 73.7% and 68.9%
- % efficacy (mancozeb 1.68 kg/ha, 35/14 d after first/last application, 47 d after planting, LEAMID): 48.0% and 36.0% and 32.0% and 43.0%
- % efficacy (mancozeb 1.68 kg/ha, 35/14 d after first/last application, 47 d after planting, LEAUPP): 72.6% and 67.0% and 59.0% and 54.8%
- % efficacy (mancozeb 1.68 kg/ha, 42/21 d after first/last application, 54 d after planting, LEAUPP): 54.0% and 43.0% and 52.0% and 38.0%
